How the values were obtained:
[1] = tested on: HUT cells; assay: HUT cell inhibition assay (WST-1 cell viability); format: cell-based; conditions: 72-96 h
Protocol: (§1) Cancer cell lines (U937 and HUT) growing in log phase were harvested and seeded at 1000-2000 cells/well (100 μl final volume) into 96-well tissue culture plates. Following 24 h of growth cells were treated with Compound. Plates were then re-incubated for a further 72-96 h before a WST-1 cell viability assay was conducted according to the suppliers (Roche Applied Science) instructions.
(§2) Data were expressed as a percentage inhibition of the control, measured in the absence of inhibitor, as follows: % inhibition=100−[(S^i/S^o)×100] where S^i is the signal in the presence of inhibitor and S^o is the signal in the presence of DMSO.
(§3) Dose response curves were generated from 8 concentrations (top final concentration 10 μM, with 3-fold dilutions), using 6 replicates.
(§4) IC50 values were determined by non-linear regression analysis, after fitting the results to the equation for sigmoidal dose response with variable slope (% activity against log concentration of Compound), using Graphpad Prism software.

[2] = tested on: HeLa cells; assay: HeLa cell inhibition assay (sulphorhodamine B cell viability); format: cell-based; conditions: Homo sapiens, 72 h, SRB
Protocol: HeLa cells growing in log phase were harvested and seeded at 1000 cells/well (200 μl final volume) into 96-well tissue culture plates. Following 24 h of cell growth cells were treated with Compounds (final concentration of 20 μM). Plates were then re-incubated for a further 72 h before a sulphorhodamine B (SRB) cell viability assay was conducted according to the methodology described by Skehan et al, J. Natl. Canc. Inst., 1990, 82, 1107-1112.
Data were expressed as a percentage inhibition of the control, measured in the absence of inhibitor, as follows:— % inhibition=100−[(S^i/S^o)×100] where S^i is the signal in the presence of inhibitor and S^o is the signal in the presence of DMSO.
(§5) IC50 values were determined by non-linear regression analysis, after fitting the results of eight data points to the equation for sigmoidal dose response with variable slope (% activity against log concentration of Compound), using Graphpad Prism software.

[3] = tested on: U937 cells; assay: U937 cell inhibition assay (WST-1 cell viability); format: cell-based; conditions: Homo sapiens, U-937, 72-96 h
Protocol: as §1, §2, §3, §4

[4] = target: T1, histone deacetylase activity (HeLa nuclear extract); assay: Histone deacetylase activity (Biomol Fluor de Lys HDAC fluorescent activity assay); format: biochemical; conditions: Fluor de Lys substrate
T1 construct: Histone deacetylase activity from crude nuclear extract derived from HeLa cells was used for screening
Protocol: The ability of compounds to inhibit histone deacetylase activities was measured using the commercially available HDAC fluorescent activity assay from Biomol. In brief, the Fluor de Lys™ substrate, a lysine with an epsilon-amino acetylation, is incubated with the source of histone deacetylase activity (HeLa nuclear extract) in the presence or absence of inhibitor. Deacetylation of the substrate sensitises the substrate to Fluor de Lys™ developer, which generates a fluorophore. Thus, incubation of the substrate with a source of HDAC activity results in an increase in signal that is diminished in the presence of an HDAC inhibitor.
Data are expressed as a percentage of the control, measured in the absence of inhibitor, with background signal being subtracted from all samples, as follows: % activity=[(S^i−B)/(S^o−B)]×100 where S^i is the signal in the presence of substrate, enzyme and inhibitor, S^o is the signal in the presence of substrate, enzyme and the vehicle in which the inhibitor is dissolved, and B is the background signal measured in the absence of enzyme.
as §5
Histone deacetylase activity from crude nuclear extract derived from HeLa cells was used for screening. The preparation, purchased from 4C (Seneffe, Belgium), was prepared from HeLa cells harvested whilst in exponential growth phase. The nuclear extract was prepared according to the methodology described by J. D. Dignam, Nucl. Acid. Res., 1983, 11, 1475-1489, snap frozen in liquid nitrogen and stored at −80° C. The final buffer composition was 20 mM Hepes, 100 mM KCl, 0.2 mM EDTA, 0.5 mM DTT, 0.2 mM PMSF and 20% (v/v) glycerol.

| IC50 [2] [nM] | IC50 [3] [nM] | IC50 [4] [nM] | SMILES | IC50 [1] [nM] |
| --- | --- | --- | --- | --- |
| < 330 | < 330 | < 100 | O=C(NO)c1cnc(N2CCC(CNCc3ccc(CN[C@H](C(=O)OC4CCCC4)C4CCCCC4)cc3)CC2)nc1 [Example 38, Cyclopentyl (2S)-cyclohexyl[(4-{[({1-[5-(hydroxycarbamoyl)pyrimidin-2-yl]piperidin-4-yl}methyl)amino]methyl}benzyl)amino]acetate] | 331 to 3300 |
| 331 to 3300 | < 330 |  | CC(C)C[C@H](NCC1CCN(c2ncc(C(=O)NO)cn2)CC1)C(=O)OC1CCCC1 [Example 16] | < 330 |
| 331 to 3300 | < 330 |  | O=C(NO)c1cnc(N2CCC(CNCc3ccc(CN[C@@H](CO)C(=O)OC4CCCC4)cc3)CC2)nc1 [Example 44] | < 330 |
|  | 331 to 3300 | > 1000 | O=C(NO)c1ccc(N2CCC(CNCC3CCC(CN[C@H](C(=O)OC4CCCC4)C4CCCCC4)CC3)CC2)cc1 (stereo partly drawn) [Example 54, cyclopentyl (2S)-cyclohexyl{[(4-{[({1-[4-(hydroxycarbamoyl)phenyl]piperidin-4-yl}methyl)amino]methyl}cyclohexyl)methyl]amino}acetate] | 331 to 3300 |
| 331 to 3300 | < 330 |  | CC(C)(C)OC[C@H](NCc1ccc(CNCC2CCN(c3ncc(C(=O)NO)cn3)CC2)cc1)C(=O)OC1CCCC1 [Example 40] | < 330 |
|  |  | 101 to 1000 | O=C(NO)c1cnc(N2CCC(NCc3ccc(CN[C@H](C(=O)OC4CCCC4)c4ccccc4)cc3)CC2)nc1 [Example 32] |  |
|  |  | > 1000 | O=C(NO)c1ccc(N2CCC(CNCC3CCC(CN[C@H](C(=O)O)C4CCCCC4)CC3)CC2)cc1 (stereo partly drawn) [Example 55, (2S)-cyclohexyl{[(4-{[({1-[4-(hydroxycarbamoyl)phenyl]piperidin-4-yl}methyl)amino]methyl}cyclohexyl)methyl]amino}acetic acid] |  |
| 331 to 3300 | < 330 |  | O=C(NO)c1cnc(N2CCC(CN[C@H](C(=O)OC3CCCC3)c3ccccc3)CC2)nc1 [Example 20] | 331 to 3300 |
|  | > 3300 | > 1000 | O=C(NO)c1ccc(N2CCC(CN[C@H](C(=O)OC3CCCC3)C3CCCCC3)CC2)cc1 [Example 50, Cyclopentyl (2S)-cyclohexyl[({1-[4-(hydroxycarbamoyl)phenyl]piperidin-4-yl}methyl)amino]acetate] | > 3300 |
| < 330 | < 330 |  | CC(C)C[C@H](NCc1ccc(CNCC2CCN(c3ncc(C(=O)NO)cn3)CC2)cc1)C(=O)OC1CCCC1 [Example 36] | < 330 |
| 331 to 3300 | < 330 |  | O=C(NO)c1cnc(N2CCC(CN[C@@H](CO)C(=O)OC3CCCC3)CC2)nc1 [Example 24] | < 330 |
|  |  | < 100 | O=C(NO)c1cnc(N2CCC(CN[C@H](C(=O)O)C3CCCCC3)CC2)nc1 [Example 19, (2S)-cyclohexyl[({1-[5-(hydroxycarbamoyl)pyrimidin-2-yl]piperidin-4-yl}methyl)amino]acetic acid] |  |
|  | 331 to 3300 | 101 to 1000 | O=C(NO)c1cnc(N2CCC(CNCC3CCC(CN[C@H](C(=O)OC4CCCC4)C4CCCCC4)CC3)CC2)nc1 (stereo partly drawn) [Example 46, Cyclopentyl (2S)-cyclohexyl{[(4-{[({1-[5-(hydroxycarbamoyl)pyrimidin-2-yl]piperidin-4-yl}methyl)amino]methyl}cyclohexyl)methyl]amino}acetate] | 331 to 3300 |
| 331 to 3300 | < 330 |  | CC(C)(C)OCC(NCC1C2CN(c3ncc(C(=O)NO)cn3)CC12)C(=O)OC1CCCC1 (stereo not shown) [Example 12] | 331 to 3300 |
| 331 to 3300 | < 330 |  | CC(C)(C)OC[C@H](NCC1CCN(c2ncc(C(=O)NO)cn2)CC1)C(=O)OC1CCCC1 [Example 22] | < 330 |
| > 3300 | 331 to 3300 |  | O=C(NO)c1cnc(N2CCC(N[C@@H](CO)C(=O)OC3CCCC3)CC2)nc1 [Example 9] | 331 to 3300 |
| > 3300 | 331 to 3300 |  | O=C(NO)c1cnc(N2CCC(CN[C@H](C(=O)OC3CCCC3)c3cccc4ccccc34)CC2)nc1 [Example 26] | 331 to 3300 |
|  |  | < 100 | O=C(NO)c1cnc(N2CCC(CNCC3CCC(CN[C@H](C(=O)O)C4CCCCC4)CC3)CC2)nc1 (stereo partly drawn) [Example 47, (2S)-cyclohexyl{[(4-{[({1-[5-(hydroxycarbamoyl)pyrimidin-2-yl]piperidin-4-yl}methyl)amino]methyl}cyclohexyl)methyl]amino}acetic acid] |  |
|  | 331 to 3300 | > 1000 | CC(C)C[C@H](NC1CCN(c2ccc(C(=O)NO)cc2)CC1)C(=O)OC1CCCC1 [Example 48, Cyclopentyl N-{1-[4-(hydroxycarbamoyl)phenyl]piperidin-4-yl}-L-leucinate] | > 3300 |
|  |  | 101 to 1000 | O=C(NO)c1cnc(N2CC3C(CN[C@H](C(=O)O)C4CCCCC4)C3C2)nc1 (stereo partly drawn) [Example 15, (2S)-cyclohexyl[({3-[5-(hydroxycarbamoyl)pyrimidin-2-yl]-3-azabicyclo[3.1.0]hex-6-yl}methyl)amino]acetic acid] |  |
|  |  | < 100 | O=C(NO)c1cnc(N2CCC(NCc3ccc(CN[C@H](C(=O)OC4CCCC4)c4ccccc4)cc3)CC2)nc1 [Example 34] |  |
| < 330 | < 330 |  | O=C(NO)c1cnc(N2CCC(CNCc3ccc(CN[C@H](C(=O)OC4CCCC4)c4ccccc4)cc3)CC2)nc1 [Example 42] | < 330 |
|  | 331 to 3300 | > 1000 | O=C(NO)c1ccc(N2CCC(CNCc3ccc(CN[C@H](C(=O)OC4CCCC4)C4CCCCC4)cc3)CC2)cc1 [Example 52, Cyclopentyl (2S)-cyclohexyl[(4-{[({1-[4-(hydroxycarbamoyl)phenyl]piperidin-4-yl}methyl)amino]methyl}benzyl)amino]acetate] | 331 to 3300 |
|  |  | 101 to 1000 | CC(C)C[C@H](NCc1ccc(CNC2CCN(c3ncc(C(=O)NO)cn3)CC2)cc1)C(=O)O [Example 28, N-{-4-[({1-[5-(hydroxycarbamoyl)pyrimidin-2-yl]piperidin-4-yl}amino)methyl]benzyl}-L-leucine] |  |
|  |  | 101 to 1000 | CC(C)C[C@H](NC1CCN(c2ncc(C(=O)NO)cn2)CC1)C(=O)O [Example 2, N-{1-[5-(hydroxycarbamoyl)pyrimidin-2-yl]piperidin-4-yl}-L-leucine] |  |
|  |  | < 100 | O=C(NO)c1cnc(N2CCC(NCc3ccc(CN[C@H](C(=O)OC4CCCC4)c4ccccc4)cc3)CC2)nc1 [Example 30] |  |
|  |  | < 100 | O=C(NO)c1cnc(N2CCC(CNCc3ccc(CN[C@H](C(=O)O)C4CCCCC4)cc3)CC2)nc1 [Example 39, (2S)-cyclohexyl[(4-{[({1-[5-(hydroxycarbamoyl)pyrimidin-2-yl]piperidin-4-yl}methyl)amino]methyl}benzyl)amino]acetic acid] |  |
|  |  | > 1000 | O=C(NO)c1ccc(N2CCC(CN[C@H](C(=O)O)C3CCCCC3)CC2)cc1 [Example 51, (2S)-cyclohexyl[({1-[4-(hydroxycarbamoyl)phenyl]piperidin-4-yl}methyl)amino]acetic acid] |  |
|  |  | > 1000 | CC(C)C[C@H](NC1CCN(c2ccc(C(=O)NO)cc2)CC1)C(=O)O [Example 49, N-{1-[4-(hydroxycarbamoyl)phenyl]piperidin-4-yl}-L-leucine] |  |

Reference: patent US8962825B2, “Hydroxamates as inhibitors of histone deacetylase” (GlaxoSmithKline Intellectual Property Development Limited, priority 2006, dated 2015)
